Data taken from patent US10975068B2, “6-aminopyridin-3-yl thiazoles as modulators of RORγT” (Janssen Pharmaceutica NV, priority 2016, dated 2021).
Read-outs that look alike come from different tables or passages of the source.

Key:
[1] = target: human RORγt ligand binding domain (RORγt LBD) (Homo sapiens (Human), UniProt P51449); test: RORγt ThermoFluor® assay (thermal shift binding); conditions: read-out: ThermoFluor® Assay, Kd
Procedure, shortened: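 Binding was inferred from thermal stabilisation (ΔTm) of the E. coli-expressed RORγt LBD (0.065 mg/mL), monitored by 1,8-ANS (60 μM) emission at 500 nm during a 1 °C/min ramp. Buffer was Hepes 100 mM pH 7.0 with NaCl, GSH and Tween-20.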

[2] = target: full-length human RORγt (Homo sapiens (Human), UniProt P51449); test: RORγt (full-length human) reporter assay, Conditions B or C; format: cell-based; conditions: for inhibition at 3 µM: at 3 μM compound concentration, read-out: RORγt (FL) Reporter Assay B or C, % inhibition; for IC50: read-out: RORγt (FL) Reporter Assay B or C, IC50; for RORγt (FL) Reporter Assay B or C, % inhibition (value marked *): marked *: footnote not given
full-length human RORγt, sequence (P51449 other isoform, or with tags, fused parts or gaps): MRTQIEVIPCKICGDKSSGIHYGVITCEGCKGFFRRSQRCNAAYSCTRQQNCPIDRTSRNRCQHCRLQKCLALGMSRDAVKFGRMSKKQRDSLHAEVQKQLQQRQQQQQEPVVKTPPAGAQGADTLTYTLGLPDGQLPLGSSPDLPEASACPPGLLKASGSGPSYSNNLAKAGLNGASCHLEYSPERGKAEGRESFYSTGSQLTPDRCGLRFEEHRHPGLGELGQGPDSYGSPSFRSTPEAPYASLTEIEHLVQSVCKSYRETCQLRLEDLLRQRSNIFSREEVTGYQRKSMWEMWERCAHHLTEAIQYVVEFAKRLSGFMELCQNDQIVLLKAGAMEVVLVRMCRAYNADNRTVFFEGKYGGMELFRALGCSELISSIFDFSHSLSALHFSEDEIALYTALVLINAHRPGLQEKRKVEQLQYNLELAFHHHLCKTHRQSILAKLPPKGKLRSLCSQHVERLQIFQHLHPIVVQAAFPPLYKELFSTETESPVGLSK
Procedure, shortened: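 Readout is dual luciferase: firefly (GAL4-driven) normalized to DMSO-only and saturating-reference controls, then to CMV-Renilla. Full-length human RORγt fused to GAL4-DBD was transiently expressed in HEK293T; compound exposure ran overnight (16-20 h) starting 4-6 h after transfection, final FBS 1.3%, DMSO 0.1%.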

human RORγt ligand binding domain (RORγt LBD), sequence (P51449 other isoform, or with tags, fused parts or gaps): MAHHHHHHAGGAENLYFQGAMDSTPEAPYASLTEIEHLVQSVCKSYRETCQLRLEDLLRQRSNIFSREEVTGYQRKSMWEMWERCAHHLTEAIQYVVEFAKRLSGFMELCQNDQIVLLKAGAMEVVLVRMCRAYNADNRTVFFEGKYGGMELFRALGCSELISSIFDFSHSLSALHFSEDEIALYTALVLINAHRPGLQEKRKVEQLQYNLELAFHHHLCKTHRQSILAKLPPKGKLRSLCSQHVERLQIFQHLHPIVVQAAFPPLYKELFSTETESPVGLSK

Kd [1] [nM] | inhibition at 3 µM [2] [%] | IC50 [2] [nM] | RORγt (FL) Reporter Assay B or C, % inhibition (value marked *) ([2]; Conditions B or C) | IC50 ([2]; Conditions B or C) [nM] | RORγt (FL) Reporter Assay B or C, % inhibition (value marked ***) ([2]; Conditions B or C, marked ***: footnote not given) | SMILES
13 | 84 | 56 | – | – | – | C[C@H]1CCCN1C(=O)c1nc(C(=O)N[C@H]2C[C@H](O)C2)sc1-c1cnc(NC(C)(C)C)cc1C(F)F [Example 400, 5-(6-(tert-Butylamino)-4-(difluoromethyl)pyridin-3-yl)-N-((1R,3S)-3-hydroxycyclobutyl)-4-((S)-2-methylpyrrolidine-1-carbonyl)thiazole-2-carboxamide]
0.77 | 105 | 32 | – | – | – | C[C@H](Nc1cc(C(F)F)c(-c2sc(C(=O)N[C@H]3CCC[C@@H]3O)nc2C(=O)N2CC(F)(F)C[C@@H]2C)cn1)C(F)(F)F [Example 418, 4-[(2S)-4,4-Difluoro-2-methyl-pyrrolidine-1-carbonyl]-5-[4-(difluoromethyl)-6-[[(1S)-2,2,2-trifluoro-1-methyl-ethyl]amino]-3-pyridyl]-N-[(1S,2S)-2-hydroxycyclopentyl]thiazole-2-carboxamide]
5.2 | 87 | 100 | – | – | – | C[C@H]1CCCN1C(=O)c1nc(C(=O)N[C@H](C)C(C)(C)O)sc1-c1cnc(NC2(C)CCC2)cc1C(F)F [Example 321, 5-(4-(Difluoromethyl)-6-((1-methylcyclobutyl)amino)pyridin-3-yl)-N—((R)-3-hydroxy-3-methylbutan-2-yl)-4-((S)-2-methylpyrrolidine-1-carbonyl)thiazole-2-carboxamide]
1.4 | 101 | 35 | – | – | – | C[C@H]1CC(F)(F)CN1C(=O)c1nc(C(=O)N[C@H](C)C(C)(C)O)sc1-c1cnc(N[C@@H](C2CC2)C(F)(F)F)cc1C(F)F [Example 314, 5-(6-(((S)-1-Cyclopropyl-2,2,2-trifluoroethyl)amino)-4-(difluoromethyl)pyridin-3-yl)-4-((S)-4,4-difluoro-2-methylpyrrolidine-1-carbonyl)-N—((R)-3-hydroxy-3-methylbutan-2-yl)thiazole-2-carboxamide]
0.62 | 101 | 23 | – | – | – | CC[C@H](Nc1cc(C(F)F)c(-c2sc(C(=O)NC3CCOCC3)nc2C(=O)N2CC(F)(F)C[C@@H]2C)cn1)C(F)(F)F [Example 422, 4-[(2S)-4,4-Difluoro-2-methyl-pyrrolidine-1-carbonyl]-5-[4-(difluoromethyl)-6-[[(1S)-1-(trifluoromethyl)propyl]amino]-3-pyridyl]-N-tetrahydropyran-4-yl-thiazole-2-carboxamide]
0.88 | 108 | 19 | – | – | – | C[C@H]1CCCN1C(=O)c1nc(C(=O)N[C@H]2CC[C@@H]2O)sc1-c1cnc(NC(C)(C)C)cc1C(F)(F)F (relative stereo) [Example 371, 5-(6-(tert-Butylamino)-4-(trifluoromethyl)pyridin-3-yl)-N-((1S*,2S*)-2-hydroxycyclobutyl)-4-((S)-2-methylpyrrolidine-1-carbonyl)thiazole-2-carboxamide]
13 | 111 | 130 | – | – | – | C[C@H]1CCCN1C(=O)c1nc(C(=O)NC[C@H](O)CO)sc1-c1cnc(NC(C)(C)C)cc1C(F)(F)F [Example 363, 5-[6-(tert-Butylamino)-4-(trifluoromethyl)-3-pyridyl]-N-[(2S)-2,3-dihydroxypropyl]-4-[(2S)-2-methylpyrrolidine-1-carbonyl]thiazole-2-carboxamide]

Second part, the compound before the results:

SMILES | Kd [1] [nM] | inhibition at 3 µM [2] [%] | IC50 [2] [nM] | RORγt (FL) Reporter Assay B or C, % inhibition (value marked *) ([2]; Conditions B or C) | IC50 ([2]; Conditions B or C) [nM] | RORγt (FL) Reporter Assay B or C, % inhibition (value marked ***) ([2]; Conditions B or C, marked ***: footnote not given)
C[C@H]1CCCN1C(=O)c1nc(C(=O)NCC(C)(C)O)sc1-c1cnc(NC(C)(C)C2CC2)cc1C(F)F [Example 105, (S)-5-(6-((2-Cyclopropylpropan-2-yl)amino)-4-(difluoromethyl)pyridin-3-yl)-N-(2-hydroxy-2-methylpropyl)-4-(2-methylpyrrolidine-1-carbonyl)thiazole-2-carboxamide] | 2 | – | – | 116* % | 15 | –
C[C@H]1CCCN1C(=O)c1nc(C(=O)NCC(C)(C)O)sc1-c1cnc(NC(C2CC2)C(F)(F)F)cc1C(F)F (stereo partly drawn) [Example 294] | 1.3 | 100 | 13 | – | – | –
C[C@H]1CCCN1C(=O)c1nc(C(=O)N[C@H](C)C(C)(C)O)sc1-c1cnc(N[C@@H](C2CC2)C(F)(F)F)cc1C(F)F [Example 311, 5-(6-(((S)-1-Cyclopropyl-2,2,2-trifluoroethyl)amino)-4-(difluoromethyl)pyridin-3-yl)-N—((R)-3-hydroxy-3-methylbutan-2-yl)-4-((S)-2-methylpyrrolidine-1-carbonyl)thiazole-2-carboxamide] | 3.7 | 107 | 40 | – | – | –
C[C@H]1CCCN1C(=O)c1nc(C(=O)NCC(C)(C)O)sc1-c1cnc(N[C@H](C)C(F)(F)F)cc1C(F)(F)F [Example 54, N-(2-Hydroxy-2-methylpropyl)-4-((S)-2-methylpyrrolidine-1-carbonyl)-5-(4-(trifluoromethyl)-6-(((R)-1,1,1-trifluoropropan-2-yl)amino)pyridin-3-yl)thiazole-2-carboxamide] | 12 | – | – | 109* % | 46 | –
C[C@H](Nc1cc(C(F)F)c(-c2sc(C(=O)N[C@H]3C[C@@H]3O)nc2C(=O)N2CCC[C@@H]2C)cn1)C(F)(F)F (relative stereo) [Example 223, 5-(4-(Difluoromethyl)-6-(((S)-1,1,1-trifluoropropan-2-yl)amino)pyridin-3-yl)-N-((1S*,2S*)-2-hydroxycyclopropyl)-4-((S)-2-methylpyrrolidine-1-carbonyl)thiazole-2-carboxamide] | 33 | – | – | 112* % | 100 | –
C[C@H]1CC(F)(F)CN1C(=O)c1nc(C(=O)NCC(C)(C)O)sc1-c1cnc(NCC2(C(F)(F)F)CC2)cc1C(F)(F)F [Example 126, (S)-4-(4,4-Difluoro-2-methylpyrrolidine-1-carbonyl)-N-(2-hydroxy-2-methylpropyl)-5-(4-(trifluoromethyl)-6-(((1-(trifluoromethyl)cyclopropyl)methyl)amino)pyridin-3-yl)thiazole-2-carboxamide] | 0.85 | – | – | 98* % | 69 | –
CCC(C)(C)Nc1cc(C(F)F)c(-c2sc(C(=O)NCC(C)(C)O)nc2C(=O)N2CC(F)(F)C[C@@H]2C)cn1 [Example 94, (S)-4-(4,4-Difluoro-2-methylpyrrolidine-1-carbonyl)-5-(4-(difluoromethyl)-6-(tert-pentylamino)pyridin-3-yl)-N-(2-hydroxy-2-methylpropyl)thiazole-2-carboxamide] | 0.36 | – | – | 115* % | 12 | –
CC[C@H](Nc1cc(C(F)F)c(-c2sc(C(=O)N[C@H](C)C(C)(C)O)nc2C(=O)N2CCCC[C@@H]2C)cn1)C(F)(F)F [Example 241, 5-[4-(Difluoromethyl)-6-[[(1S)-1-(trifluoromethyl)propyl]amino]-3-pyridyl]-N-[(1R)-2-hydroxy-1,2-dimethyl-propyl]-4-[(2S)-2-methylpiperidine-1-carbonyl]thiazole-2-carboxamide] | 0.59 | – | – | 103* % | 24 | –
C[C@H]1CCCN1C(=O)c1nc(C(=O)NCC(C)(C)O)sc1-c1cnc(NC2(C(F)(F)F)CC2)cc1C(F)(F)F [Example 147, (S)—N-(2-Hydroxy-2-methylpropyl)-4-(2-methylpyrrolidine-1-carbonyl)-5-(4-(trifluoromethyl)-6-((1-(trifluoromethyl)cyclopropyl)amino)pyridin-3-yl)thiazole-2-carboxamide] | 9.4 | – | – | – | 120 | 94*** %
C[C@H]1CCCN1C(=O)c1nc(C(=O)NCC(C)(C)O)sc1-c1cnc(NC2CCCC2(F)F)cc1C(F)(F)F (stereo partly drawn) [Example 127, 5-(6-((2,2-Difluorocyclopentyl)amino)-4-(trifluoromethyl)pyridin-3-yl)-N-(2-hydroxy-2-methylpropyl)-4-((S)-2-methylpyrrolidine-1-carbonyl)thiazole-2-carboxamide] | 6.2 | – | – | 114* % | 110 | –
C[C@H]1CCCN1C(=O)c1nc(C(=O)N2CC(CO)C2)sc1-c1cnc(NC(C)(C)C)cc1C(F)(F)F [Example 249, [5-[6-(tert-Butylamino)-4-(trifluoromethyl)-3-pyridyl]-2-[3-(hydroxymethyl)azetidine-1-carbonyl]thiazol-4-yl]-[(2S)-2-methylpyrrolidin-1-yl]methanone] | 8.1 | 103 | 24 | – | – | –
CC[C@H](Nc1cc(C(F)F)c(-c2sc(C(=O)N[C@@H](C)C(C)(C)O)nc2C(=O)N2CCC[C@@H]2C)cn1)C(F)(F)F [Example 272, 5-[4-(Difluoromethyl)-6-[[(1S)-1-(trifluoromethyl)propyl]amino]-3-pyridyl]-N-[(1S)-2-hydroxy-1,2-dimethyl-propyl]-4-[(2S)-2-methylpyrrolidine-1-carbonyl]thiazole-2-carboxamide] | 2.1 | 105 | 18 | – | – | –
C[C@H]1CCCN1C(=O)c1nc(C(=O)N[C@H]2C[C@H](O)C2)sc1-c1cnc(NC(C)(C)C)cc1C(F)(F)F [Example 258, 5-[6-(tert-Butylamino)-4-(trifluoromethyl)-3-pyridyl]-N-((1r,3S)-3-hydroxycyclobutyl)-4-[(2S)-2-methylpyrrolidine-1-carbonyl]thiazole-2-carboxamide] | 3.5 | 110 | 65 | – | – | –
